Experimental data published in PMC12647591, “Evolution, structure and function of L-cysteine desulfidase, an enzyme involved in sulfur metabolism in the methanogenic archeon Methanococcus maripaludis” (Communications Biology, 2025).
Blank lines part the entries; values can stand above or below the molecule they belong to.

Legend:
[1] = target: T1, L-cysteine desulfidase CyuA (MmCyuA) (Methanococcus maripaludis, UniProt Q6LX84); test: crystal structure, […] Å (from crystallization solution); type: binding; parameters: gene MMP1468; [2Fe-2S]-MmCyuA, molecule A
[2] = target: T2, L-cysteine desulfidase CyuA (MmCyuA) (Methanococcus maripaludis, UniProt Q6LX84, C289A); test: crystal structure, […] Å (from cryoprotectant); type: binding
T2 construct: gene MMP1468; holo-C289A-MmCyuA
T2 sequence (Q6LX84 1-396 C289A): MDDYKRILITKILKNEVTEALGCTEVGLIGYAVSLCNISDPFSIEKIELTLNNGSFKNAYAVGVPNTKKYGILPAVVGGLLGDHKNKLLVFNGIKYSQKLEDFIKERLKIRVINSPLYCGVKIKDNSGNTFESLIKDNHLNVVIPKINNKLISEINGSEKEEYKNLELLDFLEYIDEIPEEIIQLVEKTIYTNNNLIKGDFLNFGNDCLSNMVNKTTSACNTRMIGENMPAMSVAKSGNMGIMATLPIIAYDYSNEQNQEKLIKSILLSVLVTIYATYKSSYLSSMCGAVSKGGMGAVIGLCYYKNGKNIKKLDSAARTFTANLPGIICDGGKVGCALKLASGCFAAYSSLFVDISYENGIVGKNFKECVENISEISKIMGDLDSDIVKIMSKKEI

[3] = target: T1, L-cysteine desulfidase CyuA (MmCyuA); test: pyruvate formation assay ([…],4-dinitrophenylhydrazine), Lineweaver-Burk and Dixon plots; type: biochemical; parameters: gene MMP1468; holo-MmCyuA, recombinant, His-tag removed
[4] = target: the molecule itself; test: SEC-MALS; apo-MmCyuA (cluster removed with dithionite and EDTA), 100 uL at 2 mg/mL on Superdex 200 10/300 GL Increase, 50 mM Tris-HCl pH 8.5, 300 mM NaCl, 5 mM DTT

Molecule: O=S(=O)(O)CCN1CCOCC1 [2-(N-morpholino)ethanesulfonic acid]
crystal structure, 2.42 Å (from crystallization solution) [1]: sulfonate group of MES and the chloride ion were located at the same anion binding site

Molecule: OCC(O)CO [GOL, glycerol]
crystal structure, 3.18 Å (from cryoprotectant) [2]: One terminal hydroxyl of the glycerol molecule was coordinated to that Fe atom

Ki [3]: 15 ± 0.3 µM
Molecule: N[C@@H](CO)C(=O)O [L-serine]

B1: L-cysteine desulfidase CyuA from Methanococcus maripaludis (enzyme, Methanococcus maripaludis strain S2)
chain: MDDYKRILITKILKNEVTEALGCTEVGLIGYAVSLCNISDPFSIEKIELTLNNGSFKNAYAVGVPNTKKYGILPAVVGGLLGDHKNKLLVFNGIKYSQKLEDFIKERLKIRVINSPLYCGVKIKDNSGNTFESLIKDNHLNVVIPKINNKLISEINGSEKEEYKNLELLDFLEYIDEIPEEIIQLVEKTIYTNNNLIKGDFLNFGNDCLSNMVNKTTSACNTRMIGENMPAMSVAKSGNMGIMATLPIIAYDYSNEQNQEKLIKSILLSVLVTIYATYKSSYLSSMCGCVSKGGMGAVIGLCYYKNGKNIKKLDSAARTFTANLPGIICDGGKVGCALKLASGCFAAYSSLFVDISYENGIVGKNFKECVENISEISKIMGDLDSDIVKIMSKKEI
notes: L-cysteine desulfidase CyuA (MmCyuA), product of the mmp1468 gene of Methanococcus maripaludis strain S2 (NC_005791.1); synthetic codon-optimised gene in pET15b between NdeI and BamHI; theoretical mass of the monomer 43.7 kDa; the synthetic mmp1468 gene appears to have been cloned whole; Holo form carries one [4Fe-4S] cluster per monomer (Cys287, Cys289, Cys329, Cys336); in crystal 2 a [2Fe-2S] …
stoichiometry N [4]: 2
